Measured values published in patent US11426394B2, “Method to prevent and treat macular degeneration by calcium channel blockers, angiotensin converting enzyme inhibitors, and angiotensin receptor blockers” (priority 2018, dated 2022).

How the values were obtained:
[1] = in vivo; cited from earlier work
[2] = test system: Macular Degeneration; conditions: chronic use; cited from earlier work
[3] = test system: wet macular degeneration; assay: Patient with wet macular degeneration: one eye treated, other eye left untreated; type: in vivo, human
Source text: (§1) A patient is diagnosed with wet macular degeneration. A composition comprising the calcium channel blocker nifedipine is directly applied to the vitreous surface of one eye while the other eye is left untreated. […] A patient is diagnosed with wet macular degeneration. A composition comprising the ACE inhibitor enalapril is directly applied to the vitreous surface of one eye while the other eye is left untreated. […] A patient is diagnosed with wet macular degeneration. A composition comprising the angiotensin receptor blocker losartan is directly applied to the vitreous surface of one eye while the other eye is left untreated. […] A patient is diagnosed with wet macular degeneration. A composition comprising the calcium channel blocker nifedipine is directly injected into the intraocular space of one eye while the other eye is left untreated. […] A patient is diagnosed with wet macular degeneration. A composition comprising the ACE inhibitor enalapril is directly injected into the intraocular space of one eye while the other eye is left untreated. […] A patient is diagnosed with wet macular degeneration. A composition comprising the angiotensin receptor blocker losartan is directly injected into the intraocular space of one eye while the other eye is left untreated.

[4] = test system: dry macular degeneration; assay: Patient with dry macular degeneration: one eye treated, other eye left untreated; type: in vivo, human
Source text: as §1, with “dry” for “wet”

[5] = composition directly applied to the vitreous surface of one eye
[6] = composition directly injected into the intraocular space of one eye

For `CC1=C(/C=C/C(C)=C/C=C/C(C)=C/C=C/C=C(C)/C=C/C=C(C)/C=C/C2=C(C)CCCC2(C)C)C(C)(C)CCC1` [Beta carotene, beta carotene], which lung cancer [1] is on record?
The lung cancer was “increase lung cancer”.

Which “association with Macular Degeneration” value [2] does the source give for `CC(=O)Oc1ccccc1C(=O)O` [aspirin] here?
Its value is “increase in Macular Degeneration”.

For `CCOC(=O)[C@H](CCc1ccccc1)N[C@@H](C)C(=O)N1CCC[C@H]1C(=O)O` [enalapril], which “symptoms of wet macular degeneration, treated eye versus untreated eye” value [3, 5] is on record?
Its value is “reduced symptoms of wet macular degeneration”.

What about the “symptoms of wet macular degeneration, treated eye versus untreated eye” value [3, 6] of the same compound?
The value was “reduced symptoms of wet macular degeneration”.

What about the “symptoms of dry macular degeneration, treated eye versus untreated eye” value [4, 5] of the same compound?
The value was “reduced symptoms of dry macular degeneration”.

And the “symptoms of dry macular degeneration, treated eye versus untreated eye” value [4, 6]?
The value was “reduced symptoms of dry macular degeneration”.

Which results are given for `CCCCc1nc(Cl)c(CO)n1Cc1ccc(-c2ccccc2-c2nn[nH]n2)cc1` [losartan]?
symptoms of wet macular degeneration, treated eye versus untreated eye [3, 5]: reduced symptoms of wet macular degeneration; symptoms of wet macular degeneration, treated eye versus untreated eye [3, 6]: reduced symptoms of wet macular degeneration; symptoms of dry macular degeneration, treated eye versus untreated eye [4, 5]: reduced symptoms of dry macular degeneration; symptoms of dry macular degeneration, treated eye versus untreated eye [4, 6]: reduced symptoms of dry macular degeneration

With tocopherol as the compound, how does the all-cause mortality [1] read?
Its all-cause mortality is “increase in all-cause mortality”.
